Consider 20 compounds from patent US20250263390A1, “NOVEL SUBSTITUTED 6,7-DIHYDRO-5H-BENZO[7]ANNULENE COMPOUNDS AND THEIR DERIVATIVES, PROCESSES FOR THEIR PREPARATION AND THERAPEUTIC USES THEREOF” (SANOFI, priority 2022, published 2025).

The assay concerns the target T1, ERα (Homo sapiens, UniProt P03372).
T1 construct: host or cells: MCF7
T1 sequence (P03372 1-595): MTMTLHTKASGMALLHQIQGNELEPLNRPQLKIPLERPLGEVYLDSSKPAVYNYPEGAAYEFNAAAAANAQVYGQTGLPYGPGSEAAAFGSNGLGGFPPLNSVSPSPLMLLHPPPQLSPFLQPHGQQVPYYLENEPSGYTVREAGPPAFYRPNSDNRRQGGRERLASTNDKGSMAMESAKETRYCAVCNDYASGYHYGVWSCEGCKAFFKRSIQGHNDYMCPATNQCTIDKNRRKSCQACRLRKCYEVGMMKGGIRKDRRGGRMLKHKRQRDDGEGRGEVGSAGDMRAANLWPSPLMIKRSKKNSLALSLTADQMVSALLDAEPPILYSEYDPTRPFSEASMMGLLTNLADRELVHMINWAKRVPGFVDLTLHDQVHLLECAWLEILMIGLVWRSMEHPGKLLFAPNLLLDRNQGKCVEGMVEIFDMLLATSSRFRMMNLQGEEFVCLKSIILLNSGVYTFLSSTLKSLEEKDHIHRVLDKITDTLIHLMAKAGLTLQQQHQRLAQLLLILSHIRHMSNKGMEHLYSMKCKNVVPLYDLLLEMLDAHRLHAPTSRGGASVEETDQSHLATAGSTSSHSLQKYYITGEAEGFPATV
Nature of the assay: Estrogen receptor degradation activity: breast cancer cell ERα in cell western assay. It counts as cell-based. As to conditions: MCF7 cells, 4 hours, relative to fulvestrant 0.1 μM positive control. As to the method: Test: Estrogen Receptor Degradation Activity Said test involves measuring the in vitro degradation activity of the compounds of the Table 1a. The measurements of the degradation activities were made using a breast cancer cell ERα in cell western assay as described hereunder. MCF7 cells (ATCC) were seeded in 384 wells microplate (collagen coated) at a concentration of 10000 cells/30 μL per well in red phenol free MEM alpha medium (invitrogen) containing 5% charcoal dextran striped FBS. The following day, 9 points serial 1:5 dilution of each compound was added to the cells in 2.5p L at final concentrations ranging from 0.3-0.0000018 μM (in table 2), or 0.1 μM for fulvestrant (using as positive control). At 4 hours post compound addition the cells were fixed by adding 25 μL of formalin (final concentration 5% formalin containing 0.1% triton) for 10 minutes at room temperature and then washed twice with PBS. Then, 50 μL of LI-COR blocking buffer containing 0.1% Triton was added to plate for 30 minutes at room temperature. LI-COR blocking buffer was removed and cells were incubated overnight at cold room with 50 μL anti-ER rabbit monoclonal antibody (Thermo scientific MA1-39540) diluted at 1:1000 in LI-COR blocking buffer containing 0.1% tween-20. Wells which were treated with blocking buffer but no antibody were used as background control. Wells were washed twice with PBS (0.1% tween-20) and incubated at 37° C. for 60 minutes in LI-COR (0.1% tween-20) containing goat anti-rabbit antibody Alexa 488 (1:1000) and Syto-64 a DNA dye (2 μM final concentration). Cells were then washed 3 times in PBS and scanned in ACUMEN explorer (TTP-Labtech). Integrated intensities in the green fluorescence and red fluorescence were measured to determine the levels of ERα and DNA respectively. The degradation activity with respect to estrogen receptors in this test is given by the concentration which degrades 50% of the estrogen receptor (or IC50) in nM. The % of ERα levels decrease were determined as follows: % inhibition=100*(1−(sample−fulvestrant: DMSO−fulvestrant)).
With `Cc1ccc(C(F)(F)F)cc1C1=C(c2ccc(CC3CN(CCCF)C3)cc2)c2ccc(C(=O)O)cc2CCC1` [Compound 18, 9-(4-((1-(3-fluoropropyl)azetidin-3-yl)methyl)phenyl)-8-(2-methyl-5-(trifluoromethyl)phenyl)-6,7-dihydro-5H-benzo[7]annulene-3-carboxylic acid], the “% Degradation At 0.3 μM” value worked out at 78%.

As to `Cc1c(OC(F)(F)F)cccc1C1=C(c2ccc(CC3CN(CCCF)C3)cc2)c2ccc(C(=O)O)cc2CCC1` [Compound 6, 9-(4-((1-(3-fluoropropyl)azetidin-3-yl)methyl)phenyl)-8-(2-methyl-3-(trifluoromethoxy)phenyl)-6,7-dihydro-5H-benzo[7]annulene-3-carboxylic acid], the “% Degradation At 0.3 μM” value is on record as 90%. The figure for `Cc1ccc(F)c(C)c1C1=C(c2ccc(CC3CN(CCCF)C3)cc2)c2ccc(C(=O)O)cc2CCC1` [Compound 73, 8-(3-fluoro-2,6-dimethylphenyl)-9-(4-((1-(3-fluoropropyl)azetidin-3-yl)methyl)phenyl)-6,7-dihydro-5H-benzo[7]annulene-3-carboxylic acid] is 84%; for `COc1c(C)cccc1C1=C(c2ccc(CC3CN(CCCF)C3)cc2)c2ccc(C(=O)O)cc2CCC1.Cl` [Compound 49, 9-(4-((1-(3-fluoropropyl)azetidin-3-yl)methyl)phenyl)-8-(2-methoxy-3-methylphenyl)-6,7-dihydro-5H-benzo[7]annulene-3-carboxylic acid, hydrochloride] it is 92%. Take `COc1ccc(C(F)(F)F)cc1C1=C(c2ccc(CC3CN(CCCF)C3)cc2)c2ccc(C(=O)O)cc2CCC1.Cl` [Compound 28, 9-(4-((1-(3-fluoropropyl)azetidin-3-yl)methyl)phenyl)-8-(2-methoxy-5-(trifluoromethyl)phenyl)-6,7-dihydro-5H-benzo[7]annulene-3-carboxylic acid, hydrochloride]: the “% Degradation At 0.3 μM” value is on record as 80%.

For the compound `COc1cccc(C2=C(c3ccc(CC4CN(CCCF)C4)cc3)c3ccc(C(=O)O)cc3CCC2)c1C(F)F` [Compound 8, 8-(2-(difluoromethyl)-3-methoxyphenyl)-9-(4-((1-(3-fluoropropyl)azetidin-3-yl)methyl)phenyl)-6,7-dihydro-5H-benzo[7]annulene-3-carboxylic acid], the “% Degradation At 0.3 μM” value is on record as 89%. For `COc1c(F)ccc(C)c1C1=C(c2ccc(CC3CN(CCCF)C3)cc2)c2ccc(C(=O)O)cc2CCC1` [Compound 65, 8-(3-fluoro-2-methoxy-6-methylphenyl)-9-(4-((1-(3-fluoropropyl)azetidin-3-yl)methyl)phenyl)-6,7-dihydro-5H-benzo[7]annulene-3-carboxylic acid], the “% Degradation At 0.3 μM” value stood at 100%. Consider `COc1ccc(C2=C(c3ccc(CC4CN(CCCF)C4)cc3)c3ccc(C(=O)O)cc3CCC2)c(C(F)F)c1` [Compound 24, 8-(2-(difluoromethyl)-4-methoxyphenyl)-9-(4-((1-(3-fluoropropyl)azetidin-3-yl)methyl)phenyl)-6,7-dihydro-5H-benzo[7]annulene-3-carboxylic acid], for which the “% Degradation At 0.3 μM” value stood at 92%. With `O=C(O)c1ccc2c(c1)CCCC(c1cccc(F)c1OC(F)F)=C2c1ccc(CC2CN(CCCF)C2)cc1` [Compound 1, 8-(2-(difluoromethoxy)-3-fluorophenyl)-9-(4-((1-(3-fluoropropyl)azetidin-3-yl)methyl)phenyl)-6,7-dihydro-5H-benzo[7]annulene-3-carboxylic acid], the “% Degradation At 0.3 μM” value was 85%. In the case of `COc1ccc(C2=C(c3ccc(CC4CN(CCCF)C4)cc3)c3ccc(C(=O)O)cc3CCC2)cc1OC` [Compound 71, 8-(3,4-dimethoxyphenyl)-9-(4-((1-(3-fluoropropyl)azetidin-3-yl)methyl)phenyl)-6,7-dihydro-5H-benzo[7]annulene-3-carboxylic acid], the “% Degradation At 0.3 μM” value is recorded as 96%. Regarding `Cc1cccc(C(F)(F)F)c1C1=C(c2ccc(CC3CN(CCCF)C3)cc2)c2ccc(C(=O)O)cc2CCC1` [Compound 33, 9-(4-((1-(3-fluoropropyl)azetidin-3-yl)methyl)phenyl)-8-(2-methyl-6-(trifluoromethyl)phenyl)-6,7-dihydro-5H-benzo[7]annulene-3-carboxylic acid], the “% Degradation At 0.3 μM” value is 91%. Then `O=C(O)c1ccc2c(c1)CCCC(c1ccc(OC(F)(F)F)cc1)=C2c1ccc(CC2CN(CCCF)C2)cc1` [Compound 27, 9-(4-((1-(3-fluoropropyl)azetidin-3-yl)methyl)phenyl)-8-(4-(trifluoromethoxy)phenyl)-6,7-dihydro-5H-benzo[7]annulene-3-carboxylic acid], with 93%. For `CCc1c(Cl)cccc1C1=C(c2ccc(CC3CN(CCCF)C3)cc2)c2ccc(C(=O)O)cc2CCC1` [Compound 38, 8-(3-chloro-2-ethylphenyl)-9-(4-((1-(3-fluoropropyl)azetidin-3-yl)methyl)phenyl)-6,7-dihydro-5H-benzo[7]annulene-3-carboxylic acid], the “% Degradation At 0.3 μM” value is given as 92%. For the compound `Cc1cccc(C2=C(c3ccc(CC4CN(CCCF)C4)cc3)c3ccc(C(=O)O)cc3CCC2)c1C(F)F.Cl` [Compound 54, 8-(2-(difluoromethyl)-3-methylphenyl)-9-(4-((1-(3-fluoropropyl)azetidin-3-yl)methyl)phenyl)-6,7-dihydro-5H-benzo[7]annulene-3-carboxylic acid, hydrochloride], the “% Degradation At 0.3 μM” value was 90%. Turning to `Cc1cc(C2=C(c3ccc(CC4CN(CCCF)C4)cc3)c3ccc(C(=O)O)cc3CCC2)c(C)cc1F` [Compound 31, 8-(4-fluoro-2,5-dimethylphenyl)-9-(4-((1-(3-fluoropropyl)azetidin-3-yl)methyl)phenyl)-6,7-dihydro-5H-benzo[7]annulene-3-carboxylic acid], the “% Degradation At 0.3 μM” value is 92%. Consider `O=C(O)c1ccc2c(c1)CCCC(c1ccc(C(F)(F)F)c(O)c1)=C2c1ccc(CC2CN(CCCF)C2)cc1` [Compound 52, 9-(4-((1-(3-fluoropropyl)azetidin-3-yl)methyl)phenyl)-8-(3-hydroxy-4-(trifluoromethyl)phenyl)-6,7-dihydro-5H-benzo[7]annulene-3-carboxylic acid], for which the “% Degradation At 0.3 μM” value was 90%. The figure for `COc1cc(C)cc(C)c1C1=C(c2ccc(CC3CN(CCCF)C3)cc2)c2ccc(C(=O)O)cc2CCC1` [Compound 72, 9-(4-((1-(3-fluoropropyl)azetidin-3-yl)methyl)phenyl)-8-(2-methoxy-4,6-dimethylphenyl)-6,7-dihydro-5H-benzo[7]annulene-3-carboxylic acid] is 91%; for `Cl.O=C(O)c1ccc2c(c1)CCCC(c1ccc(C(F)(F)F)cc1C1CC1)=C2c1ccc(CC2CN(CCCF)C2)cc1` [Compound 32, 8-(2-cyclopropyl-4-(trifluoromethyl)phenyl)-9-(4-((1-(3-fluoropropyl)azetidin-3-yl)methyl)phenyl)-6,7-dihydro-5H-benzo[7]annulene-3-carboxylic acid, hydrochloride] it is 91%; for `Cc1c(O)cccc1C1=C(c2ccc(CC3CN(CCCF)C3)cc2)c2ccc(C(=O)O)cc2CCC1.Cl` [Compound 61, 9-(4-((1-(3-fluoropropyl)azetidin-3-yl)methyl)phenyl)-8-(3-hydroxy-2-methylphenyl)-6,7-dihydro-5H-benzo[7]annulene-3-carboxylic acid, hydrochloride] it is 90%.

In the case of `Cc1ccc(C2=C(c3ccc(CC4CN(CCCF)C4)cc3)c3ccc(C(=O)O)cc3CCC2)c(C)c1Cl` [Compound 58, 8-(3-chloro-2,4-dimethylphenyl)-9-(4-((1-(3-fluoropropyl)azetidin-3-yl)methyl)phenyl)-6,7-dihydro-5H-benzo[7]annulene-3-carboxylic acid], the “% Degradation At 0.3 μM” value is reported as 90%.
